Assay results from publication PMC9329436, “Optimization of the 4-anilinoquin(az)oline scaffold as epidermal growth factor receptor (EGFR) inhibitors for chordoma utilizing a toxicology profiling assay platform” (Scientific Reports, 2022).

Assays:
[1] = system: WS1 human fibroblast cell line; experiment: Cell viability assay, WS1 toxicity control; assay type: cell-based; conditions: n = 4, nonspecific toxicity control
Procedure, shortened: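 Patient-derived chordoma lines and WS1 fibroblasts seeded in 384-well plates, dosed in quadruplicate 24 h after plating.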

[2] = system: U-CH1 chordoma cell line; experiment: Cell viability assay (alamarBlue, 72 h), U-CH1; assay type: cell-based, human; conditions: n = 4, 72 h
Procedure, shortened: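 Cells grown in 4:1 IMDM:RPMI with 10% FBS on gel-coated flasks, dosed in quadruplicate 24 h after seeding in 384-well plates.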

[3] = biological target: VEGFR2 (Homo sapiens, UniProt P35968); experiment: 33PanQinase activity assay; assay type: biochemical; conditions: 10 μM
From the text: Table S4. Profiling of two compounds at two concentrations against 320 wild-type protein kinases; singlicate measurement; Residual activities (% of control).

VEGFR2, sequence (P35968 20-1356): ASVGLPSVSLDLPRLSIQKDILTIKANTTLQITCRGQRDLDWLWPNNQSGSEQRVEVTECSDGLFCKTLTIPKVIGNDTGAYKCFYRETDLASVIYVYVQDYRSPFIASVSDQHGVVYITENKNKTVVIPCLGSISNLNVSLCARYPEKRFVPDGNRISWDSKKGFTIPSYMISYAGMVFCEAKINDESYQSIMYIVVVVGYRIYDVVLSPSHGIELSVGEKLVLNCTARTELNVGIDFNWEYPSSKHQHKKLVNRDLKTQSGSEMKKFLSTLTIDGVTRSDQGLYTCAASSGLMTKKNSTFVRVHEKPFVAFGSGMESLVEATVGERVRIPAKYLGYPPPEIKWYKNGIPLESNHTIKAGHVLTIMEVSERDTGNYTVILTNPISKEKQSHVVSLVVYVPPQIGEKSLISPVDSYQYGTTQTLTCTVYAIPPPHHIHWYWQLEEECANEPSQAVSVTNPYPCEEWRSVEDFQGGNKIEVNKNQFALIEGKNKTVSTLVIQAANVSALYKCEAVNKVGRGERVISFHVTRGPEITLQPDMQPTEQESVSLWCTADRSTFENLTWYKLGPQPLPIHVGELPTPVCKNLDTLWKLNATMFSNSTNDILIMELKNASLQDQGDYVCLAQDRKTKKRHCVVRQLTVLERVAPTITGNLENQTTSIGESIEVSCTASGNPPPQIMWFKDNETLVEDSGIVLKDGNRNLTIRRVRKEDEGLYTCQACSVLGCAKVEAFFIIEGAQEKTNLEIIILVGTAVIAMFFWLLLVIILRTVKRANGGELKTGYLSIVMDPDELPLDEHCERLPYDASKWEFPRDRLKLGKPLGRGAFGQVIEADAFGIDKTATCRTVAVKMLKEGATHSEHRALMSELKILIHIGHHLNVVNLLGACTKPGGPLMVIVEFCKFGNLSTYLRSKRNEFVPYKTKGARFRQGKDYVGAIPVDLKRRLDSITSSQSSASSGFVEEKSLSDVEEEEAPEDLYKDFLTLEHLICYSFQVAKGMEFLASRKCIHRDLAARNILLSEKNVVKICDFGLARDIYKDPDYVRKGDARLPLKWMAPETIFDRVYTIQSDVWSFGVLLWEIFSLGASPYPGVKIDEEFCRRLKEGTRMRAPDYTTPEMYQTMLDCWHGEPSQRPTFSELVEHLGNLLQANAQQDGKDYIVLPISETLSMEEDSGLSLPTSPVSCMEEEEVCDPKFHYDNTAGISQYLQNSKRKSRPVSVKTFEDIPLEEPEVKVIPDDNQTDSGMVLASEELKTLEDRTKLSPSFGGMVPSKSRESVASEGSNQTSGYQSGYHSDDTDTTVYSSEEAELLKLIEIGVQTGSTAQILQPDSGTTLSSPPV

Structure (SMILES)	IC50 [1]	IC50 [2]	VEGFR2 inhibition [3]
C#Cc1cc(Nc2ncnc3cc(I)ccc23)ccc1Cl [Compound 41]	36 µM	9.1 µM	–
C#Cc1cc(Nc2ncnc3cc(OC)c(OC)cc23)ccc1Cl [Compound 45]	> 100 µM	> 100 µM	> 50%
